Assay results published in ChEMBL document CHEMBL1128073, “Inhibition of glycosidases by substituted amidines” (Bioorg Med Chem Lett, 1995).

Legend:
[1] = Inhibition against Alpha-maninosidase in jack bean; set-up: species or system Canavalia ensiformis
[2] = pKa value was determined for the compound by 1H NMR titration; type: physicochemical
[3] = biological target: T1, Beta-galactosidase (Bos taurus, UniProt Q58D55); assay: Inhibition against beta-galactosidase in bovine liver; NI is No Inhibition at 1 mM
T1 sequence (Q58D55 whole entry): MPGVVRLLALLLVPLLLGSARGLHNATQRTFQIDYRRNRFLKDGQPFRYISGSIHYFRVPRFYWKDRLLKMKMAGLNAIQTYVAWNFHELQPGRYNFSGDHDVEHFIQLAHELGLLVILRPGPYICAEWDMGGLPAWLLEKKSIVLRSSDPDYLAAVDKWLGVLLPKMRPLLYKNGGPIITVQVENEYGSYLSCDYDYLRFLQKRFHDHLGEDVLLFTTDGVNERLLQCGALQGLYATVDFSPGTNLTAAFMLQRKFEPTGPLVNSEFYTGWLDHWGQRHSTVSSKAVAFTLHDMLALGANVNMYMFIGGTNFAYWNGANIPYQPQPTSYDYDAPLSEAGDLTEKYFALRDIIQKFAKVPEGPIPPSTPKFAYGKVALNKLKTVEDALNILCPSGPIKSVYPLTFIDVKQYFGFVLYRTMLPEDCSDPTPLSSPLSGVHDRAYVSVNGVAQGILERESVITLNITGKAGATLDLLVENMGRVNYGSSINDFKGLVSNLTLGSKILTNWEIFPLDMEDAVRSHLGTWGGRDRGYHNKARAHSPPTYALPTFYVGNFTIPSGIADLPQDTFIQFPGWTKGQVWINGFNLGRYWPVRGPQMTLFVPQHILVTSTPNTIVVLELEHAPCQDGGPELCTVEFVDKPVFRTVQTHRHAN

Ki [1] [µM]	pKa [2]	Ki [3]	SMILES
14000	–	–	c1ccc(CNC2=NCCCC2)cc1
1400	–	–	OCC1CCCC(NCc2ccccc2)=N1 (configuration not stated)
0.55	10	No inhibition	OC[C@@H]1N=C(NCc2ccccc2)[C@@H](O)[C@@H](O)[C@@H]1O
2.6	–	No inhibition	CO[C@H]1O[C@@H](CNC2=N[C@@H](CO)[C@@H](O)[C@H](O)[C@@H]2O)[C@@H](O)[C@H](O)[C@H]1O
